Experimental data: patent US6825172B2, “3-descladinosyl-6-O-carbamoyl and 6-O-carbonoyl macrolide antibacterial agents” (Janssen Pharmaceutica, NV, priority 2002, dated 2004)
≈ marks a conversion by molar mass, not a printed value. Where two headings read alike, the source gives them in different places.

Tests used:
Experiment in all cases: MIC, microdilution broth method (NCCLS)
Assay type in all cases: cell-based
E. coli OC2605 = settings: Escherichia coli, Table 1, 6-Carbamoyl-3-Acyl Macrolide Derivatives, read-out: MIC Values, A: E. coli OC2605
Method: (§1) Minimal inhibitory concentration (MIC) has been an indicator of in vitro antibacterial activity widely used in the art. The in vitro antimicrobial activity of the compounds was determined by the microdilution broth method following the test method from the National Committee for Clinical Laboratory Standards (NCCLS). This method is described in the NCCLS Document M7-A4, Vol.17, No.2, “Methods for Dilution Antimicrobial Susceptibility Test for Bacteria that Grow Aerobically—Fourth Edition”, which is incorporated herein by reference.
(§2) In this method two-fold serial dilutions of drug in cation adjusted Mueller-Hinton broth are added to wells in microdilution trays. The test organisms are prepared by adjusting the turbidity of actively growing broth cultures so that the final concentration of test organism after it is added to the wells is approximately 5×10^4 CFU/well.
(§3) Following inoculation of the microdilution trays, the trays are incubated at 35 °C for 16-20 hours and then read. […] The amount of growth in the wells containing the test compound is compared with the amount of growth in the growth-control wells (no test compound) used in each tray. As set forth in Table 1, compounds of the present invention were tested against a variety of Gram positive and Gram negative pathogenic bacteria resulting in a range of activities depending on the organism tested.

E. faecalis ATCC29212 = settings: Enterococcus faecalis, read-out: MIC Values, C: E. faecalis ATCC29212
Method: as §1, §2, §3

H. influenzae ATCC49247 = settings: Haemophilus influenzae, Table 1, 6-Carbamoyl-3-Acyl Macrolide Derivatives, read-out: MIC Values, E: H. influenzae ATCC49247
Method: as §1, §2, §3

S. aureus ATCC29213 = settings: Staphylococcus aureus, read-out: MIC Values, B: S. aureus ATCC29213
Method: as §1, §2, §3

S. pneumoniae ATCC49619 = settings: Streptococcus pneumoniae, read-out: MIC Values, D: S. pneumoniae ATCC49619
Method: as §1, §2, §3

[1] = Table 1, 6-Carbamoyl-3-Acyl Macrolide Derivatives
[2] = Table 3, 6-Carbonate Macrolide Derivatives

Compound | MIC (E. coli OC2605) | MIC (E. faecalis ATCC29212; [1]) | MIC (H. influenzae ATCC49247) | MIC (S. aureus ATCC29213; [1]) | MIC (S. pneumoniae ATCC49619; [1]) | MIC (E. faecalis ATCC29212; [2]) | MIC (S. aureus ATCC29213; [2]) | MIC (S. pneumoniae ATCC49619; [2])
CC[C@H]1OC(=O)[C@H](C)[C@@H](OC(=O)C(C)C)[C@H](C)[C@@H](O[C@@H]2O[C@H](C)C[C@H](N(C)C)[C@H]2O)[C@](C)(OC(=O)NC/C=C/c2ccc(-c3ncccn3)cc2)C[C@@H](C)C(=O)[C@H](C)[C@H]2NC(=O)O[C@@]21C [Compound 1, Propanoic acid, 2-methyl-, (3aS,4R,7R,8S,9S,10R, 11R,13R,15R,15aR)-4-ethyltetradecahydro-3a,7,9,11,13,15-hexamethyl-2,6,14-trioxo-11-[[[[(2E)-3-[4-(2-pyrimidinyl)phenyl]-2-propenyl]amino]carbonyl]oxy]-10-[[3,4,6-trideoxy-3-(dimethylamino)-β-D-xylo-hexopyranosyl]oxy]-2H-oxacyclotetradecino[4,3-d]oxazol-8-yl ester] | 16 µg/mL (≈ 17.6 µM) | 0.25 µg/mL (≈ 0.275 µM) | 1 µg/mL (≈ 1.1 µM) | 0.5 µg/mL (≈ 0.551 µM) | 0.06 µg/mL (≈ 0.0661 µM) | – | – | –
CC[C@H]1OC(=O)[C@H](C)[C@@H](OC(=O)Cc2ccccn2)[C@H](C)[C@@H](O[C@@H]2O[C@H](C)C[C@H](N(C)C)[C@H]2O)[C@](C)(OC(=O)NC/C=C/c2ccc(-c3ncccn3)cc2)C[C@@H](C)C(=O)[C@H](C)[C@H]2NC(=O)O[C@@]21C [Compound 2] | 16 µg/mL (≈ 16.7 µM) | 0.25 µg/mL (≈ 0.261 µM) | 1 µg/mL (≈ 1.04 µM) | 0.5 µg/mL (≈ 0.522 µM) | – | – | – | –
CC[C@H]1OC(=O)[C@H](C)[C@@H](OC(=O)CCc2cccnc2)[C@H](C)[C@@H](O[C@@H]2O[C@H](C)C[C@H](N(C)C)[C@H]2O)[C@](C)(OC(=O)NC/C=C/c2ccc(-c3ncccn3)cc2)C[C@@H](C)C(=O)[C@H](C)[C@H]2NC(=O)O[C@@]21C [Compound 3] | > 16 µg/mL | 0.25 µg/mL (≈ 0.257 µM) | 2 µg/mL (≈ 2.06 µM) | 0.5 µg/mL (≈ 0.515 µM) | 0.06 µg/mL (≈ 0.0618 µM) | – | – | –
CC[C@H]1OC(=O)[C@H](C)[C@@H](OC(=O)Cc2cccnc2)[C@H](C)[C@@H](O[C@@H]2O[C@H](C)C[C@H](N(C)C)[C@H]2O)[C@](C)(OC(=O)NC/C=C/c2ccc(-c3ncccn3)cc2)C[C@@H](C)C(=O)[C@H](C)[C@H]2NC(=O)O[C@@]21C [Compound 4, 3-Pyridineacetic acid, (3aS,4R,7R,8S,9S,10R,11R,13R,15R,15aR)-4-ethyltetradecahydro-3a,7,9,11,13,15-hexamethyl-2,6,14-trioxo-11-[[[[(2E)-3-[4-(2-pyrimidinyl)phenyl]-2-propenyl]amino]carbonyl]oxy]-10-[[3,4,6-trideoxy-3-(dimethylamino)-β-D-xylo-hexopyranosyl]oxy]-2H-oxacyclotetradecino[4,3-d]oxazol-8-yl ester] | 8 µg/mL (≈ 8.36 µM) | 0.25 µg/mL (≈ 0.261 µM) | 2 µg/mL (≈ 2.09 µM) | 0.25 µg/mL (≈ 0.261 µM) | 0.06 µg/mL (≈ 0.0627 µM) | – | – | –
CC[C@H]1OC(=O)[C@H](C)[C@@H](OC(=O)c2cnccn2)[C@H](C)[C@@H](O[C@@H]2O[C@H](C)C[C@H](N(C)C)[C@H]2O)[C@](C)(OC(=O)NC/C=C/c2ccc(-c3ncccn3)cc2)C[C@@H](C)C(=O)[C@H](C)[C@H]2NC(=O)O[C@@]21C [Compound 5] | > 16 µg/mL | 0.5 µg/mL (≈ 0.53 µM) | 8 µg/mL (≈ 8.47 µM) | 0.5 µg/mL (≈ 0.53 µM) | 0.06 µg/mL (≈ 0.0636 µM) | – | – | –
CC[C@H]1OC(=O)[C@H](C)[C@@H](OC(=O)/C=C/c2cccnc2)[C@H](C)[C@@H](O[C@@H]2O[C@H](C)C[C@H](N(C)C)[C@H]2O)[C@](C)(OC(=O)NC/C=C/c2ccc(-c3ncccn3)cc2)C[C@@H](C)C(=O)[C@H](C)[C@H]2NC(=O)O[C@@]21C [Compound 6] | > 16 µg/mL | 1 µg/mL (≈ 1.03 µM) | > 16 µg/mL | 2 µg/mL (≈ 2.06 µM) | 0.12 µg/mL (≈ 0.124 µM) | – | – | –
CC[C@H]1OC(=O)[C@H](C)[C@@H](OC(=O)c2cccnc2)[C@H](C)[C@@H](O[C@@H]2O[C@H](C)C[C@H](N(C)C)[C@H]2O)[C@](C)(OC(=O)NC/C=C/c2ccc(-c3ncccn3)cc2)C[C@@H](C)C(=O)[C@H](C)[C@H]2NC(=O)O[C@@]21C [Compound 7] | > 16 µg/mL | 0.5 µg/mL (≈ 0.53 µM) | 8 µg/mL (≈ 8.48 µM) | 1 µg/mL (≈ 1.06 µM) | 0.06 µg/mL (≈ 0.0636 µM) | – | – | –
CC[C@H]1OC(=O)[C@H](C)[C@@H](OC(=O)Cc2ccncc2)[C@H](C)[C@@H](O[C@@H]2O[C@H](C)C[C@H](N(C)C)[C@H]2O)[C@](C)(OC(=O)NC/C=C/c2ccc(-c3ncccn3)cc2)C[C@@H](C)C(=O)[C@H](C)[C@H]2NC(=O)O[C@@]21C [Compound 8] | 16 µg/mL (≈ 16.7 µM) | 0.25 µg/mL (≈ 0.261 µM) | 2 µg/mL (≈ 2.09 µM) | 0.5 µg/mL (≈ 0.522 µM) | 0.06 µg/mL (≈ 0.0627 µM) | – | – | –

Second part, the molecule after the results:

MIC (E. coli OC2605) | MIC (E. faecalis ATCC29212; [1]) | MIC (H. influenzae ATCC49247) | MIC (S. aureus ATCC29213; [1]) | MIC (S. pneumoniae ATCC49619; [1]) | MIC (E. faecalis ATCC29212; [2]) | MIC (S. aureus ATCC29213; [2]) | MIC (S. pneumoniae ATCC49619; [2]) | Compound
> 16 µg/mL | 1 µg/mL (≈ 1.01 µM) | 8 µg/mL (≈ 8.1 µM) | 2 µg/mL (≈ 2.03 µM) | 0.12 µg/mL (≈ 0.122 µM) | – | – | – | CC[C@H]1OC(=O)[C@H](C)[C@@H](OC(=O)c2ccc([N+](=O)[O-])cc2)[C@H](C)[C@@H](O[C@@H]2O[C@H](C)C[C@H](N(C)C)[C@H]2O)[C@](C)(OC(=O)NC/C=C/c2ccc(-c3ncccn3)cc2)C[C@@H](C)C(=O)[C@H](C)[C@H]2NC(=O)O[C@@]21C [Compound 10]
> 16 µg/mL | 2 µg/mL (≈ 1.98 µM) | 8 µg/mL (≈ 7.93 µM) | 2 µg/mL (≈ 1.98 µM) | 0.25 µg/mL (≈ 0.248 µM) | – | – | – | CC[C@H]1OC(=O)[C@H](C)[C@@H](OC(=O)Cc2cn(C)c3ccccc23)[C@H](C)[C@@H](O[C@@H]2O[C@H](C)C[C@H](N(C)C)[C@H]2O)[C@](C)(OC(=O)NC/C=C/c2ccc(-c3ncccn3)cc2)C[C@@H](C)C(=O)[C@H](C)[C@H]2NC(=O)O[C@@]21C [Compound 11]
> 16 µg/mL | 0.25 µg/mL (≈ 0.284 µM) | 8 µg/mL (≈ 9.09 µM) | 1 µg/mL (≈ 1.14 µM) | 0.06 µg/mL (≈ 0.0682 µM) | – | – | – | CC[C@H]1OC(=O)[C@H](C)[C@@H](OC(C)=O)[C@H](C)[C@@H](O[C@@H]2O[C@H](C)C[C@H](N(C)C)[C@H]2O)[C@](C)(OC(=O)NC/C=C/c2ccc(-c3ncccn3)cc2)C[C@@H](C)C(=O)[C@H](C)[C@H]2NC(=O)O[C@@]21C [Compound 12]
> 16 µg/mL | 0.5 µg/mL (≈ 0.543 µM) | 8 µg/mL (≈ 8.69 µM) | 0.5 µg/mL (≈ 0.543 µM) | 0.06 µg/mL (≈ 0.0652 µM) | – | – | – | CC[C@H]1OC(=O)[C@H](C)[C@@H](OC(=O)CC2CC2)[C@H](C)[C@@H](O[C@@H]2O[C@H](C)C[C@H](N(C)C)[C@H]2O)[C@](C)(OC(=O)NC/C=C/c2ccc(-c3ncccn3)cc2)C[C@@H](C)C(=O)[C@H](C)[C@H]2NC(=O)O[C@@]21C [Compound 13]
16 µg/mL (≈ 17.9 µM) | 0.25 µg/mL (≈ 0.28 µM) | 4 µg/mL (≈ 4.47 µM) | 0.25 µg/mL (≈ 0.28 µM) | 0.06 µg/mL (≈ 0.0671 µM) | – | – | – | CCC(=O)O[C@H]1[C@H](C)[C@@H](O[C@@H]2O[C@H](C)C[C@H](N(C)C)[C@H]2O)[C@](C)(OC(=O)NC/C=C/c2ccc(-c3ncccn3)cc2)C[C@@H](C)C(=O)[C@H](C)[C@H]2NC(=O)O[C@]2(C)[C@@H](CC)OC(=O)[C@@H]1C [Compound 14]
> 16 µg/mL | 0.5 µg/mL (≈ 0.542 µM) | 4 µg/mL (≈ 4.34 µM) | 0.5 µg/mL (≈ 0.542 µM) | 0.06 µg/mL (≈ 0.0651 µM) | – | – | – | CC[C@H](C)C(=O)O[C@H]1[C@H](C)[C@@H](O[C@@H]2O[C@H](C)C[C@H](N(C)C)[C@H]2O)[C@](C)(OC(=O)NC/C=C/c2ccc(-c3ncccn3)cc2)C[C@@H](C)C(=O)[C@H](C)[C@H]2NC(=O)O[C@]2(C)[C@@H](CC)OC(=O)[C@@H]1C [Compound 15]
> 16 µg/mL | 0.5 µg/mL (≈ 0.507 µM) | 8 µg/mL (≈ 8.11 µM) | 1 µg/mL (≈ 1.01 µM) | 0.06 µg/mL (≈ 0.0608 µM) | – | – | – | CC[C@H]1OC(=O)[C@H](C)[C@@H](OC(=O)COCc2ccccc2)[C@H](C)[C@@H](O[C@@H]2O[C@H](C)C[C@H](N(C)C)[C@H]2O)[C@](C)(OC(=O)NC/C=C/c2ccc(-c3ncccn3)cc2)C[C@@H](C)C(=O)[C@H](C)[C@H]2NC(=O)O[C@@]21C [Compound 16]
16 µg/mL (≈ 19.3 µM) | 0.25 µg/mL (≈ 0.301 µM) | 1 µg/mL (≈ 1.2 µM) | 0.5 µg/mL (≈ 0.602 µM) | 0.06 µg/mL (≈ 0.0722 µM) | – | – | – | CC[C@H]1OC(=O)[C@H](C)[C@@H](OC(=O)C(C)C)[C@H](C)[C@@H](O[C@@H]2O[C@H](C)C[C@H](N(C)C)[C@H]2O)[C@](C)(OC(=O)NC/C=C/c2cccnc2)C[C@@H](C)C(=O)[C@H](C)[C@H]2NC(=O)O[C@@]21C [Compound 17]
– | – | – | – | – | 0.5 µg/mL (≈ 0.533 µM) | 0.5 µg/mL (≈ 0.533 µM) | 0.03 µg/mL (≈ 0.032 µM) | CC[C@H]1OC(=O)[C@H](C)[C@@H](OC(=O)N(CC)CC)[C@H](C)[C@@H](O[C@@H]2O[C@H](C)C[C@H](N(C)C)[C@H]2O)[C@](C)(OC(=O)OC/C=C/c2ccc(-c3cnccn3)cc2)C[C@@H](C)C(=O)[C@H](C)[C@H]2NC(=O)O[C@@]21C [Compound 85]
– | – | – | – | – | 0.5 µg/mL (≈ 0.567 µM) | 1 µg/mL (≈ 1.13 µM) | 0.06 µg/mL (≈ 0.068 µM) | CC[C@H]1OC(=O)[C@H](C)[C@@H](OC(=O)C(C)C)[C@H](C)[C@@H](O[C@@H]2O[C@H](C)C[C@H](N(C)C)[C@H]2O)[C@](C)(OC(=O)OC/C=C/c2cnc3ccccc3c2)C[C@@H](C)C(=O)[C@H](C)[C@H]2NC(=O)O[C@@]21C [Compound 86]
